In ChEMBL document CHEMBL4613209, “Quinolone hybrids and their anti-cancer activities: An overview” (Eur J Med Chem, 2019):
Blank lines part the entries; values can stand above or below the compound they belong to.

What was measured:
Caspase-3 = Caspase-3 (Homo sapiens, UniProt P42574); assay: Activation of caspase 3 in human SMMC7721 cells; type: cell-based, SMMC-7721
Hep 3B2 = assay: Antiproliferative activity against human Hep3B cells after 24 to 72 hrs by MTT assay; type: functional, cell-based
Caspase-9 = Caspase-9 (Homo sapiens, UniProt P55211); assay: Activation of caspase 9 in human SMMC7721 cells; type: cell-based, SMMC-7721
Sequence of Caspase-9 (P55211 1-315 limits assumed): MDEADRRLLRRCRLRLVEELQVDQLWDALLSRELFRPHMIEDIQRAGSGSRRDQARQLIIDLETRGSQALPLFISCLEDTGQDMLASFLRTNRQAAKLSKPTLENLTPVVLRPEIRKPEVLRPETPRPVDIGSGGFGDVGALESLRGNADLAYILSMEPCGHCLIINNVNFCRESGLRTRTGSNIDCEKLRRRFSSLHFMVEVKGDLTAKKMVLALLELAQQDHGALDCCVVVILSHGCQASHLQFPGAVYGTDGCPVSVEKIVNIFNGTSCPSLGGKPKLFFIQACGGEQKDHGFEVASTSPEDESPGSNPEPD
Sequence of Caspase-9 (P55211 331-416 limits assumed): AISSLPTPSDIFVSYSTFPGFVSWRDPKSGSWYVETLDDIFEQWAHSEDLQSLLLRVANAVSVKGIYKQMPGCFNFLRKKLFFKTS

SMMC-7721 = assay: Antiproliferative activity against human SMMC7721 cells after 24 to 72 hrs by MTT assay; type: functional, cell-based
[1] = biological target: Cellular tumor antigen p53 (Homo sapiens, UniProt P04637); assay: Activation of p53 in human SMMC7721 cells; type: cell-based, SMMC-7721
Sequence of Cellular tumor antigen p53 (P04637 whole entry): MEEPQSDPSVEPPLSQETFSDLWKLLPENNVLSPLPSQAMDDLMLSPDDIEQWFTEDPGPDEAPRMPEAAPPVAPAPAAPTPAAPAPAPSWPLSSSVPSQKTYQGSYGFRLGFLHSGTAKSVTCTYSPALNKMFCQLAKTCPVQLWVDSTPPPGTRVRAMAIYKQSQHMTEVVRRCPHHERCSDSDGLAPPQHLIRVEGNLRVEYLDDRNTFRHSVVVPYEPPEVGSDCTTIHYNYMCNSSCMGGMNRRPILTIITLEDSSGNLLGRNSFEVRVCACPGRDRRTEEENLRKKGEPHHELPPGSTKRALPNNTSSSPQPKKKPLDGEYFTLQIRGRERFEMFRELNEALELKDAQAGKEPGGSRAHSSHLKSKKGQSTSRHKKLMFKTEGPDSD

Apoptosis regulator BAX = Apoptosis regulator BAX (Homo sapiens, UniProt Q07812); assay: Activation of Bax in human SMMC7721 cells; type: cell-based, SMMC-7721
Sequence of Apoptosis regulator BAX (Q07812 whole entry): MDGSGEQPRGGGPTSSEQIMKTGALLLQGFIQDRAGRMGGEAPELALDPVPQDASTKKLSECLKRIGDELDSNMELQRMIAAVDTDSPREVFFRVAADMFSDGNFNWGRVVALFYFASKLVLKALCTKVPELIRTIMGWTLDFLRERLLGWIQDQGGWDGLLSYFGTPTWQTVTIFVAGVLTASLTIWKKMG

HL-60 = assay: Antiproliferative activity against human HL60 cells after 24 to 72 hrs by MTT assay; type: functional, cell-based
L1210 = assay: Antiproliferative activity against mouse L1210 cells after 24 to 72 hrs by MTT assay; type: functional, cell-based
[2] = Toxicity in mouse xenografted with human CX-1 cells; settings: in vivo
[3] = Toxicity in mouse xenografted with human MB-9812 cells
HCT-116 = assay: Cytotoxicity against human HCT116 cells assessed as reduction in cell viability by SRB assay; type: functional, cell-based
MCF7 = assay: Cytotoxicity against human MCF7 cells assessed as reduction in cell viability by SRB assay; type: functional, cell-based
PANC-1 = assay: Growth inhibition of human PANC1 cells after 48 hrs by SRB assay; type: functional; settings: PANC-1, 48 h
MDA-MB-231 = assay: Growth inhibition of human MDA-MB-231 cells after 48 hrs by SRB assay; type: functional; settings: MDA-MB-231, 48 h
SiHa = assay: Growth inhibition of human SiHa cells after 48 hrs by SRB assay; type: functional
HT-1080 = assay: Cytotoxicity against human HT1080 cells assessed as reduction in cell viability; type: functional, cell-based
K562 = assay: Anticancer activity against human K562 cells; type: functional, cell-based

Sequence of Caspase-3 (P42574 29-175 limits assumed): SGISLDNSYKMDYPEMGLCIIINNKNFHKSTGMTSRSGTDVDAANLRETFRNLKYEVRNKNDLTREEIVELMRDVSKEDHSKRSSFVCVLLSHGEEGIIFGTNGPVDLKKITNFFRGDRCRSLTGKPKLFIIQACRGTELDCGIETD
Sequence of Caspase-3 (P42574 176-277 limits assumed): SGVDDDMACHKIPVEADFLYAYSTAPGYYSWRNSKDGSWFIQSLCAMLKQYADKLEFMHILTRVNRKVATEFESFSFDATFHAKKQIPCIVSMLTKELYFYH

SMILES: O=C(N/N=C/c1ccc2c(c1)OCO2)c1cn(C2CC2)c2cc(N3CCNCC3)c(F)cc2c1=O
IC50 (Caspase-3): 3 to 7.39 µM
IC50 (Hep 3B2): 1.4 to 52.3 µM
IC50 (Caspase-9): 3 to 7.39 µM
IC50 (SMMC-7721): 1.4 to 52.3 µM
IC50 [1]: 3 to 7.39 µM
IC50 (Apoptosis regulator BAX): 3 to 7.39 µM
IC50 (HL-60): 1.4 to 52.3 µM
IC50 (L1210): 1.4 to 52.3 µM

SMILES: CN(Cc1cnc2nc(N)nc(N)c2n1)c1ccc(C(=O)N[C@@H](CCC(=O)O)C(=O)O)cc1 [METHOTREXATE]
LD50 [2]: 5 mg/kg
LD50 [3]: 5 mg/kg

SMILES: N#Cc1c(N)c2cc(-c3nc4ccccc4o3)ccc2[nH]c1=O
IC50 (HCT-116): 0.0357 µM
IC50 (MCF7): 0.0267 µM

SMILES: CC[C@H](CC[C@@H](C)[C@H]1CC[C@H]2[C@@H]3CC=C4C[C@@H](O)CC[C@]4(C)[C@H]3CC[C@]12C)C(C)C [BETA-SITOSTEROL]
IC50 (HT-1080): 2.5 to 15.7 µM

Second part, led by results:

GI50 (PANC-1): 0.07 µM
GI50 (MDA-MB-231): 0.22 µM
SMILES: CCn1cc(C(=O)O)c(=O)c2cnc(N3CCN(C(=O)CCSc4nnnn4-c4ccc(Br)cc4)CC3)nc21
GI50 (SiHa): 0.08 µM

IC50 (K562): 64.1 to 198 µM
SMILES: CCOC(=O)c1cn([C@@H]2O[C@H](CO)[C@@H](O)[C@H]2O)c2ccc(Nc3ccccc3)cc2c1=O

IC50 (K562): 76.8 µM
SMILES: NC(=O)c1cn([C@@H]2O[C@H](CO)[C@@H](O)[C@H]2O)c2ccc(Oc3ccccc3)cc2c1=O
